Laboratory results taken from US20050272824A1, “Methods for monitoring combretastatin resistance” (priority 2004, published 2005).
Entries after “also recorded” stand apart in the source; their conditions may differ. Where two headings read alike, the source gives them in different places.

What was measured:
[1] = system: P30 (H460 cells selected at 30 nM paclitaxel); test: In vitro cytotoxicity assay of resistant cell line P30; format: cell-based, human; details: for IC50: P30 cells (H460 selected at 30 nM paclitaxel), MTT after 48 h; for P30 Resistance Factor: P30 cells relative to parental H460
Protocol: (§1) A panel of cells lines obtained from American Type Culture Collection (Rockville, Md., USA) was initially assayed against CA-4 to screen for drug sensitivity. […] H460 cells were grown and maintained in RPMI-1640 supplemented with penicillin-streptomycin, Fungizone® and 10% heat inactivated fetal bovine serum (Invitrogen, Carlsbad, Calif., USA) and maintained at 37° C. humidified 5% CO2 atmosphere. H460 parental cell line was selected for resistance to CA-4, paclitaxel or vinblastine by incubation with stepwise increments of each drug, beginning at 2 nM. Cells were treated with the drugs for 24 h, once a week, and every 2-3 weeks, drug dose was increased by 2 nM increments until 30 nM drug resistance was reached. To select non-MDR resistant cell lines, cells were evolved in the presence of verapamil, an inhibitor of P-glycoprotein (P-gp) drug efflux pump that produces a MDR phenotype. Resistance was maintained by acute 24 h exposure to the corresponding drug and verapamil once a month. All cells used for the experiments were grown logarithmically in drug-free medium at least a week before experiments.
(§2) Cytoxicity assays was assessed using a modified MTT assay (Mosmann, 1983). MTT (3-(4,5-dimethylthiazol-2-yl)-2,5-diphenyl tetrazolium bromide, MTT) was purchased from Sigma (St. Louis, Mo., USA). For each drug treatment, triplicate wells were seeded (5.0×10^3/well) and conditioned overnight. Drugs were prepared by serial dilution with RPMI media and added to the corresponding wells. After 48 h, the MTT assay was performed. Percentage survival was calculated as the OD560 of the treated sample divided by the OD560 of the untreated control cell line. Cell lines were tested with cisplatin to test for non-MDR phenotype.
(§3) C30, P30, and V30 cell lines represent H460 parental cells selected at 30 nM CA-4, paclitaxel, and vinblastine, respectively. […] Cisplatin, an anti-cancer agent with a non-tubulin-binding mode of action was assayed against the cell lines to test for […].

[2] = system: C30 (H460 cells selected at 30 nM CA-4); test: In vitro cytotoxicity assay of resistant cell line C30; format: cell-based, human; details: for IC50: C30 cells (H460 selected at 30 nM CA-4), MTT after 48 h; for C30 Resistance Factor: C30 cells relative to parental H460
Protocol: as §1, §2, §3

[3] = system: V30 (H460 cells selected at 30 nM vinblastine); test: In vitro cytotoxicity assay of resistant cell line V30; format: cell-based, human; details: for IC50: V30 cells (H460 selected at 30 nM vinblastine), MTT after 48 h; for V30 Resistance Factor: V30 cells relative to parental H460
Protocol: as §1, §2, §3

[4] = system: NCI-H460; test: In vitro cytotoxicity (modified MTT) assay, H460 parental; format: cell-based, human; details: MTT after 48 h
Protocol: (§4) A panel of cells lines obtained from American Type Culture Collection (Rockville, Md., USA) was initially assayed against CA-4 to screen for drug sensitivity. The human non-small cell lung carcinoma (NSCLC), NCI-H460, was selected for resistance based on significant cytotoxicity. H460 cells were grown and maintained in RPMI-1640 supplemented with penicillin-streptomycin, Fungizone® and 10% heat inactivated fetal bovine serum (Invitrogen, Carlsbad, Calif., USA) and maintained at 37° C. humidified 5% CO2 atmosphere. H460 parental cell line was selected for resistance to CA-4, paclitaxel or vinblastine by incubation with stepwise increments of each drug, beginning at 2 nM. Cells were treated with the drugs for 24 h, once a week, and every 2-3 weeks, drug dose was increased by 2 nM increments until 30 nM drug resistance was reached. To select non-MDR resistant cell lines, cells were evolved in the presence of verapamil, an inhibitor of P-glycoprotein (P-gp) drug efflux pump that produces a MDR phenotype. Resistance was maintained by acute 24 h exposure to the corresponding drug and verapamil once a month. All cells used for the experiments were grown logarithmically in drug-free medium at least a week before experiments.
as §2
To select a moderately sensitive cell line for drug-resistance, a panel of susceptible tumor cell lines was screened for CA-4 cytotoxicity. Table 1 depicts the average in vitro cytotoxicity (IC50) values for three independent experiments with each experiment run in triplicate.

[5] = system: BXPC3; test: In vitro cytotoxicity (modified MTT) assay, BXPC3; format: cell-based; details: BXPC3, Pancreatic Adenocarcinoma; MTT after 48 h; average of three independent experiments in triplicate
Protocol: as §4, with “All cells used for the experiments were grown logarithmically in drug-free medium at least a week before experiments.” left out
(§5) Cytoxicity assays was assessed using a modified MTT assay (Mosmann, 1983). […] Percentage survival was calculated as the OD560 of the treated sample divided by the OD560 of the untreated control cell line. […]

[6] = system: DU145; test: In vitro cytotoxicity (modified MTT) assay, DU145; format: cell-based; details: DU145, Prostate Carcinoma; MTT after 48 h; average of three independent experiments in triplicate
Protocol: as §4, with “All cells used for the experiments were grown logarithmically in drug-free medium at least a week before experiments.” left out
as §5

[7] = system: HT29; test: In vitro cytotoxicity (modified MTT) assay, HT29; format: cell-based; details: HT29, Colorectal Adenocarcinoma; MTT after 48 h; average of three independent experiments in triplicate
Protocol: as §4, with “All cells used for the experiments were grown logarithmically in drug-free medium at least a week before experiments.” left out
as §5

[8] = system: MOLT4; test: In vitro cytotoxicity (modified MTT) assay, MOLT4; format: cell-based; details: MOLT4, Acute Lymphoblastic Leukemia; MTT after 48 h; average of three independent experiments in triplicate
Protocol: as §4, with “All cells used for the experiments were grown logarithmically in drug-free medium at least a week before experiments.” left out
as §5

[9] = system: CEM; test: In vitro cytotoxicity (modified MTT) assay, CEM; format: cell-based; details: Acute Lymphoblastic Leukemia, MTT after 48 h, average of three independent experiments in triplicate
Protocol: as §4, with “All cells used for the experiments were grown logarithmically in drug-free medium at least a week before experiments.” left out
as §5

[10] = system: MCF7; test: In vitro cytotoxicity (modified MTT) assay, MCF7; format: cell-based; details: MCF7, Mammary Gland Adenocarcinoma; MTT after 48 h; average of three independent experiments in triplicate
Protocol: as §4, with “All cells used for the experiments were grown logarithmically in drug-free medium at least a week before experiments.” left out
as §5

[11] = H460 parental cells, Table 2, read-out: H460 wild-type IC50
[12] = Homo sapiens, NCI-H460, H460 parental cells, Table 2, read-out: H460 wild-type IC50

| SMILES | IC50 [1] [µM] | IC50 [2] [µM] | IC50 [3] [µM] | IC50 [4, 11] [µM] | IC50 ([1]; Homo sapiens, NCI-H460) [µM] | P30 Resistance Factor [1] | C30 Resistance Factor [2] | IC50 ([2]; Homo sapiens, NCI-H460) [µM] | IC50 ([3]; Homo sapiens, NCI-H460) [µM] | V30 Resistance Factor [3] | IC50 [4, 12] [µM] | further results |
| --- | --- | --- | --- | --- | --- | --- | --- | --- | --- | --- | --- | --- |
| N.N.[Cl][Pt][Cl] [Cisplatin] | 0.0253 ± 0.0031 | 0.0167 ± 0.0032 | 0.0217 ± 0.0006 | 0.02 ± 0.0026 |  |  |  |  |  |  |  |  |
| COc1ccc(/C=C\c2cc(OC)c(OC)c(OC)c2)cc1O [CA-4, Combretastatin A-4] | 0.0085 ± 0.0002 | 0.019 | 0.0092 ± 0.0006 | 0.007 ± 0.0006 |  |  |  |  |  |  |  | IC50 [5]: 57 µM; IC50 [6]: 0.0077 µM; IC50 [7]: 55.1 µM; IC50 [8]: 0.0041 µM; IC50 [9]: 0.00025 µM; IC50 [10]: 165 µM; IC50 ([4]; H460, Non-Small Cell Lung Carcinoma, Table 1 screen, average of three independent experiments in triplicate, read-out: IC50): 0.0073 µM |
| CC[C@]1(O)C[C@@H]2CN(CCc3c([nH]c4ccccc34)[C@@](C(=O)OC)(c3cc4c(cc3OC)N(C)[C@H]3[C@@](O)(C(=O)OC)[C@H](OC(C)=O)[C@]5(CC)C=CCN6CC[C@]43[C@@H]65)C2)C1 [Vinblastine] |  |  |  |  | 0.0157 ± 0.0042 | 2.7 ± 0.7 | 1.0 ± 0.0 | 0.006 ± 0.0003 | 0.0263 ± 0.0021 | 4.5 ± 0.4 | 0.0059 ± 0.0001 | P30 Resistance Factor ([1]; listed as vinblastine): threefold; C30 Resistance Factor ([2]; listed as vinblastine): negligibly resistant; V30 Resistance Factor ([3]; listed as vinblastine): fivefold |
| CC(=O)O[C@H]1C(=O)[C@@]2(C)[C@H]([C@H](OC(=O)c3ccccc3)[C@]3(O)C[C@H](OC(=O)[C@H](O)[C@@H](NC(=O)c4ccccc4)c4ccccc4)C(C)=C1C3(C)C)[C@]1(OC(C)=O)CO[C@@H]1C[C@@H]2O [Paclitaxel] |  |  |  |  | 0.077 ± 0.0049 | 9.6 ± 1.0 | 9.9 ± 0.6 | 0.08 ± 0.002 | 0.087 ± 0.0036 | 10.8 ± 1.0 | 0.0081 ± 0.0004 | P30 Resistance Factor ([1]; listed as paclitaxel): tenfold; C30 Resistance Factor ([2]; listed as paclitaxel): tenfold; V30 Resistance Factor ([3]; listed as paclitaxel): eleven fold; also recorded: tenfold |
